Reference: paper PMC12030062, “From In Vitro Cytotoxicity to In Vivo Zebrafish Assays: A Study on 3,3-Dichloro β-, γ- and δ-Lactams and Their Biological Activity Profiles” (Pharmaceuticals, 2025)

Tests used:
Zebrafish embryos = format: in vivo; conditions: 74 hpf after 2-h washout; all tested concentrations up to 3.4 µg/mL
Description: Additionally, at 74 hpf, following a 2-h washout period, the response to a tactile stimulus or touch-evoked response, also known as a TER, was evaluated in embryos. This assay requires the embryos to have proper neuromuscular function. […] Further studies might be needed to elucidate the specific mechanisms by which the compound affects neurodevelopment or motor function and to determine whether these effects translate to other organisms. These findings are consistent with the broader body of research on anticancer agents, highlighting the importance of neurotoxicity evaluation in drug development and reinforcing the need for ongoing research to address these concerns. The videos and figures related to this part of the work are available in the Supplementary Materials.
• Zebrafish egg production and exposure The study was conducted in accordance with the local legislation and institutional requirements, according to the Generalitat de Catalunya Decree 53/2013, which regulates the use of animals for experimental and other scientific purposes. […] At the end of the test, dysmorphogenesis was evaluated in the live embryos only. The average lethality and dysmorphogenesis were calculated for 10 embryos per concentration, followed by averaging the results of at least three independent experiments. […]

A431 cells = assay: AO/EB double staining, cellular death events; format: cell-based, human; conditions: A431, 24 h, 10-160 µg/mL

Compound: CC(C)(C)N1C(=O)C(Cl)(Cl)C1c1ccccc1 (centres unmarked) [Compound 1]
- touch-evoked response (TER), swimming distance (Zebrafish embryos): significant neurodevelopmental adverse effect
- mode of cell death (A431 cells): induces cell death primarily via apoptosis
